Measured values published in patent US6699690B2, “Molecular constructs with a carcinoembryonic antigen (CEA) transcriptional regulatory sequence” (SmithKline Beecham Corporation, priority 1992, dated 2004).
Where two headings read alike, the source gives them in different places.

Assays:
WiDr cells = experiment: Inhibition of cell growth by 5-FC in WiDr cells; assay type: cell-based; settings: Homo sapiens; control WiDr cells, 3,000 cells per well, dosed from Day 3, read Day 8
Description: (§1) FIG. 23: 5-FC dose response of mixed WiDr and WiDr/CD cells. […] Beginning on Day 3, the cells were dosed with serially diluted 5-FC at the concentrations indicated on the x axis. The plates were stained and read on Day 8.
(§2) The following data illustrates and supports this important component of this invention. A human colorectal carcinoma cell line, WiDr, was genetically engineered to express cytosine deaminase (CD) by transfecting into the cell line the cloned gene for cytosine deaminase in an appropriate expression vector system for mammalian cells. WiDr cells expressing cytosine deaminase (WiDR/CD) and control cells not expressing cytosine deaminase (WiDr) were mixed together at different ratios, then plated at a total of 3,000 cells per well in a 96 well microtiter dish. […] Using the same mixtures of WiDr and WiDr/CD cells and again plating 3,000 total cells per well in a 96 well microtiter dish, log dose response curves were generated for the inhibition of cell growth by 5-FC.

WiDr/CD tumors = experiment: 5-FC treatment of subcutaneous WiDr/CD tumors in nude mice; assay type: in vivo; settings: WiDr/CD cells injected; 5-FC ip 500 mg/kg; assessed day 130
Description: (§3) The same mixtures of WiDr and WiDr/CD cells were injected subcutaneously into 10 individual nude mice for 10 individual injections of 10 million cells for each mixture (Table 3). By day 6, all mice had tumors of approximately the same size. On day 6, 5 mice of each group received a daily injection of 5-FC (ip at 500 mg/kg body weight) for approximately 20 consecutive days, then injections of 5-FC (ip at 500 mg/kg body weight) three times a week for 19 days. By 22 days post tumor cell injection, all nontreated animals had to be killed due to the large size of the tumors. Likewise, all animals with WiDr derived tumors which also received 5-FC treatment had to be sacrificed on day 22 due to the size of the tumors.

WiDr tumors = experiment: 5-FC treatment of subcutaneous WiDr tumors in nude mice; assay type: in vivo; settings: 5-FC ip 500 mg/kg
Description: as §3

[1] = tested on: mixed WiDr and WiDr/CD tumors; experiment: 5-FC treatment of subcutaneous mixed WiDr:WiDr/CD tumors in nude mice; assay type: in vivo; settings: 5-FC ip 500 mg/kg; for Number of Cures: assessed day 130
Description: as §3

WiDr/CD cells = experiment: Inhibition of cell growth by 5-FC in WiDr/CD cells; assay type: cell-based; settings: Homo sapiens; WiDr/CD cells expressing cytosine deaminase, 3,000 cells per well, dosed from Day 3, read Day 8
Description: as §1, §2

HepG2 cells [2] = experiment: Growth inhibition by araM in HepG2 cells; assay type: cell-based, human; settings: HepG2 infected with ALB/VZV TK (pCR74) virus, 5 days, read-out: IC50 (50% growth inhibition)
Description: (§4) The replication-defective, full-length, artificial retroviruses containing the ALB/VZV TK chimaera or AFP/VZV TK chimaera were used to infect human hepatoma cell lines called HepG2 (ATCC HB 8065) and HuH7(provided by B. Mason, Fox Chase Cancer Center, Philadelphia, Pa.). Following infection and selection on 1 mg Geneticin/mL, the cells were assayed for VZV TK activity (Geneticin(antibiotic G418 sulphate) is a registered trademark of GIBCO). In addition, HepG2 cells were incubated in the presence of (^3H)-labeled 9-β-D-arabinofuranosyl-6-methoxy-9H-purine (designated as araM in the following tables and figures) with subsequent measurement of ara-ATP formation. Finally, HepG2 and HuH7 cells were cultured in the presence of the abovementioned compound and the IC50 (50% growth inhibition) was determined. Cells infected with no virus or N2 virus act as control samples for these experiments. The N2 viruses contain no VZV TK genetic material.
(§5) HepG2 and HuH7 cells infected with the replication-defective, full-length, artificial retroviruses containing the ALB/VZV TK chimaera (pCR74) or AFP/VZV TK (pCR78) chimaera were incubated in the presence of varying amounts of 9-β-D-arabinofuranosyl-6-methoxy-9H-purine for 5 days and growth inhibition was determined as measured by cell number and DNA content.

HuH7 cells = experiment: Growth inhibition by araM in HuH7 cells; assay type: cell-based; settings: Homo sapiens, Huh-7, 120 h, 5 days, read-out: IC50 (50% growth inhibition)
Description: as §4, §5

[3] = tested on: WiDR, MCF7, Detroit 555, and SW480 nonhepatoma cell lines; experiment: Growth inhibition by araM in infected nonhepatoma cell lines; assay type: cell-based, human; settings: four nonhepatoma cell lines infected with pCR74 or pCR78 virus
Description: Four human, nonhepatoma cell lines were infected with replication-defective, full-length, artifical retroviruses containing the ALB/VZV TK chimaera (pCR74) or AFP/VZV TK chimaera (pCR78). These cell lines were WiDR (ATCC CCL218), MCF7 (ATCC HTB22), Detroit 555 (ATCC CCL110), and SW480 (ATCC CCL228). Subsequent to infection and selection on Geneticin (antibiotic G418 sulphate; registered trademark of GIBCO), these cells were assayed for VZV TK activity and growth inhibition in the presence of 9-β-D-arabinofuranosyl-6-methoxy-9H-purine, as described above. There was no increase in VZV TK activity or drug sensitivity to 9-β-D-arabino-furanosyl-6-methoxy-9H-purine in these four nonhepatoma cell lines infected with replication-defective, full-length, artificial retroviruses containing the ALB/VZV TK chimaera (pCR74) or AFP/VZV TK chimaera (pCR78) compared to parental cell lines which were not infected.

HepG2 cells [4] = experiment: ara-ATP formation from (3H)-labelled araM in infected HepG2 cells; assay type: cell-based, human; settings: HepG2 cells infected with either pCR74- or pCR78-containing viruses
Description: as §4
9-β-D-arabinofuranosyl-6-methoxy-9H-purine (designated as araM) can be selectively monophosphorylated by VZV TK with subsequent anabolism to cytotoxic ara-ATP.

Structure (SMILES) | IC50 (WiDr cells) [µM] | Number of Cures (WiDr/CD tumors) | Number of Cures (WiDr tumors; WiDR cells injected, assessed day 22) | effect on tumors (WiDr tumors; WiDr tumors that do not express cytosine deaminase) | Number of Cures ([1]; WiDr:WiDr/CD (1:1) injected) | Number of Cures ([1]; WiDr:WiDr/CD (1:2) injected) | Number of Cures ([1]; WiDr:WiDr/CD (2:1) injected) | antitumor effects ([1]; all tumor groups composed of mixtures of cells which contained WiDr/CD cells) | IC50 (WiDr/CD cells) [µM] | IC50 (HepG2 cells [2]; listed as 9-B-D-arabinofuranosyl-6-methoxy-9H-purine) [µM] | IC50 (HepG2 cells [2]; Homo sapiens, HepG2, 120 h) [µM] | IC50 (HuH7 cells; HuH7, no virus (control)) [µM] | IC50 (HuH7 cells; HuH7 infected with AFP/VZV TK (pCR78) virus) [µM] | IC50 (HuH7 cells; HuH7 infected with ALB/VZV TK (pCR74) virus) [µM] | increase in drug sensitivity compared to parental cell lines not infected [3] | cytotoxic (3H)-ara-ATP formation (HepG2 cells [4])
Nc1nc(=O)[nH]cc1F [5-FC, 5-fluorocytosine] | 10000 to 30000 | 3/5 | 0/5 | no effect | 4/5 | 4/5 | 4/5 | significant antitumor effects | 10 to 25 | – | – | – | – | – | – | –
COc1ncnc2c1ncn2[C@@H]1O[C@H](CO)[C@@H](O)[C@@H]1O [araM, 9-β-D-arabinofuranosyl-6-methoxy-9H-purine] | – | – | – | – | – | – | – | – | – | 5 | 6.5 | ~1620 | 76 | 11 | no increase | significant amounts
